Activity calls are given as the source filed them.
What was measured:
[1] = target: Neuronal acetylcholine receptor; alpha9/alpha10 (Homo sapiens, UniProt Q9GZZ6+Q9UGM1); experiment: Antagonist activity at human wild type alpha9alpha10 nAChR expressed in acetylcholine-induced Xenopus laevis oocytes assessed as inhibition of acetylcholine-induced current at 1:3 ratio of protein by two electrode voltage-clamp assay; type: cell-based, Oocyte
[2] = Antagonist activity at human alpha9N152G mutant alpha10 nAChR expressed in acetylcholine-induced Xenopus laevis oocytes assessed as inhibition of acetylcholine-induced current at 1:1 ratio of protein by two electrode voltage-clamp assay; type: cell-based; settings: Oocyte
[3] = target: Nicotinic acetylcholine receptor alpha9/alpha10 (Rattus norvegicus, UniProt P43144+Q9JLB5); experiment: Antagonist activity at rat wild type alpha9alpha10 nAChR expressed in acetylcholine-induced Xenopus laevis oocytes assessed as inhibition of acetylcholine-induced current at 1:1 ratio of protein by two electrode voltage-clamp assay; type: cell-based, Oocyte
[4] = target: T1, Neuronal acetylcholine receptor; alpha3/beta2 (Homo sapiens) (UniProt P17787+P32297); experiment: Antagonist activity at human alpha3beta2 nAChR expressed in acetylcholine-induced Xenopus laevis oocytes assessed as inhibition of acetylcholine-induced current at 30 nM by two electrode voltage-clamp assay; type: cell-based; settings: Oocyte
[5] = target: T1, Neuronal acetylcholine receptor; alpha3/beta2 (Homo sapiens); experiment: Antagonist activity at human alpha3beta2 nAChR expressed in acetylcholine-induced Xenopus laevis oocytes assessed as inhibition of acetylcholine-induced current at 100 nM by two electrode voltage-clamp assay relative to control; type: cell-based; settings: Oocyte
[6] = target: T2, Neuronal acetylcholine receptor subunit alpha-7 (Homo sapiens, UniProt P36544); experiment: Antagonist activity at human alpha7 nAChR expressed in acetylcholine-induced Xenopus laevis oocytes assessed as inhibition of acetylcholine-induced current at 100 nM by two electrode voltage-clamp assay; type: cell-based; settings: Oocyte, filed as antagonist
[7] = target: T2, Neuronal acetylcholine receptor subunit alpha-7; experiment: Antagonist activity at human alpha7 nAChR expressed in acetylcholine-induced Xenopus laevis oocytes assessed as inhibition of acetylcholine-induced current by two electrode voltage-clamp assay; type: cell-based, Oocyte
[8] = target: Neuronal acetylcholine receptor; alpha3/beta2 (Rattus norvegicus) (UniProt P04757+P12390); experiment: Antagonist activity at rat alpha3beta2 nAChR expressed in acetylcholine-induced Xenopus laevis oocytes assessed as inhibition of acetylcholine-induced current at 100 nM by two electrode voltage-clamp assay; type: cell-based; settings: Oocyte
[9] = target: Neuronal acetylcholine receptor; alpha4/beta2 (Rattus norvegicus) (UniProt P09483+P12390); experiment: Antagonist activity at rat alpha4beta2 nAChR expressed in acetylcholine-induced Xenopus laevis oocytes assessed as inhibition of acetylcholine-induced current at 100 nM by two electrode voltage-clamp assay; type: cell-based; settings: Oocyte
[10] = target: Neuronal acetylcholine receptor; alpha3/beta4 (Rattus norvegicus) (UniProt P04757+P12392); experiment: Antagonist activity at rat alpha3beta4 nAChR expressed in acetylcholine-induced Xenopus laevis oocytes assessed as inhibition of acetylcholine-induced current at 100 nM by two electrode voltage-clamp assay relative to control; type: cell-based; settings: Oocyte
[11] = target: Neuronal acetylcholine receptor; alpha9/alpha10 (Homo sapiens) (UniProt Q9UGM1+Q9GZZ6); experiment: Antagonist activity at human alpha9alpha10 nAChR expressed in acetylcholine-induced Xenopus laevis oocytes assessed as inhibition of acetylcholine-induced current at 30 nM at -120 mV holding potential by two electrode voltage-clamp assay; type: cell-based; settings: Oocyte, filed as antagonist
[12] = target: T3, Voltage-dependent N-type calcium channel subunit alpha-1B (Homo sapiens, UniProt Q00975); experiment: Inhibition of human Cav2.2 channel transfected in HEK293T cells co-expressed with human GABAB receptor assessed as inhibition of Cav2.2-mediated Ba2+ current at 100 nM measured for 3 to 5 days by whole-cell patch clamp assay; type: cell-based; settings: time 3-5 day
[13] = target: T3, Voltage-dependent N-type calcium channel subunit alpha-1B; experiment: Inhibition of human Cav2.2 channel transfected in HEK293T cells co-expressed with human GABAB receptor assessed as inhibition of Cav2.2-mediated Ba2+ current at 100 nM in presence of CGP 55845 measured for 3 to 5 days by whole-cell patch clamp assay; type: cell-based; settings: time 3-5 day
[14] = target: T3, Voltage-dependent N-type calcium channel subunit alpha-1B; experiment: Inhibition of human Cav2.2 channel transfected in HEK293T cells assessed as inhibition of Cav2.2-mediated Ba2+ current at 1 uM measured for 3 to 5 days by whole-cell patch clamp assay; type: cell-based; settings: time 3-5 day
[15] = target: T3, Voltage-dependent N-type calcium channel subunit alpha-1B; experiment: Inhibition of human Cav2.2 channel transfected in HEK293T cells assessed as inhibition of Cav2.2-mediated Ba2+ current at 1 uM measured for 3 to 5 days by whole-cell patch clamp assay relative to control; type: cell-based; settings: time 3-5 day
[16] = test system: Rattus norvegicus; experiment: Analgesic activity in Chronic constriction injury rat model assessed as increase in paw withdrawal threshold at 250 microg/kg,IM administration and measured for 0.5 to 48 hrs; type: functional, organism-based; settings: dose 250.0 µg/kg, time 0.5-48 hrs
[17] = test system: Rattus norvegicus; experiment: Analgesic activity in Chronic constriction injury rat model assessed as increase in paw withdrawal latency at 250 microg/kg,IM administration and measured for 0.5 to 48 hrs; type: functional, organism-based; settings: dose 250.0 µg/kg, time 0.5-48 hrs
[18] = test system: Rattus norvegicus; experiment: Analgesic activity in Chronic constriction injury rat model assessed as decrease in hyperalgesia at 0.25 to 25 microg/kg,IM administrated every 2 hrs for 14 days; type: functional, organism-based; settings: dose 0.25-25 µg/kg, time 14.0 day
[19] = Toxicity in rat assessed as change in behavior at 250 microg/kg,IM administrated for 14 consecutive days by conditioned place preference assay; settings: in vivo, 0.25 mg/kg, dose 250 µg/kg
[20] = target: T4, Potassium/sodium hyperpolarization-activated cyclic nucleotide-gated channel 2 (Homo sapiens) (UniProt Q9UL51); experiment: Inhibition of HCN2 (unknown origin) at 1 uM
T4 sequence (whole entry): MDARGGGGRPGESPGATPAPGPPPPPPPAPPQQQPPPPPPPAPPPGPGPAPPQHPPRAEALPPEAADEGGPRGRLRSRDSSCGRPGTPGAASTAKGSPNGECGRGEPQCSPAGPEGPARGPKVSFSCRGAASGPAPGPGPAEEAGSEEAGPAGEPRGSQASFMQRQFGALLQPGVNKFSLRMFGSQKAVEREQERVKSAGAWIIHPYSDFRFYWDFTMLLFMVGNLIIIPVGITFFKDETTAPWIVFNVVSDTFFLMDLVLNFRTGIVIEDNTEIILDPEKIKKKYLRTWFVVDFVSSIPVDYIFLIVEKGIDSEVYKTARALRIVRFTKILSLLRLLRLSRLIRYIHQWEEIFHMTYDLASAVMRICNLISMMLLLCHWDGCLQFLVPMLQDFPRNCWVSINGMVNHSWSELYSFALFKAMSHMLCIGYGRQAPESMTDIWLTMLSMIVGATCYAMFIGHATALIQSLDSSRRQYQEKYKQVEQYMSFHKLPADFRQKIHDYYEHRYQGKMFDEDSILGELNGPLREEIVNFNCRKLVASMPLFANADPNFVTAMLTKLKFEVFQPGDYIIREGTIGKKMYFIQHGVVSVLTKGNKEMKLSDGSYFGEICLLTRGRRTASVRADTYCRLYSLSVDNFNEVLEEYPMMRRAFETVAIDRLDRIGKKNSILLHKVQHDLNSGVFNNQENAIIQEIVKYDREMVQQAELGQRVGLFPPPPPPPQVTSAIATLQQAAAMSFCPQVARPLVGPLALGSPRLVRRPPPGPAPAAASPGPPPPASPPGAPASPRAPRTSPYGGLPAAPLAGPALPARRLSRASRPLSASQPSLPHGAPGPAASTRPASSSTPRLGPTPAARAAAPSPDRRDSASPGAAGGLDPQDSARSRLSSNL

T3 sequence (Q00975 whole entry, looked up): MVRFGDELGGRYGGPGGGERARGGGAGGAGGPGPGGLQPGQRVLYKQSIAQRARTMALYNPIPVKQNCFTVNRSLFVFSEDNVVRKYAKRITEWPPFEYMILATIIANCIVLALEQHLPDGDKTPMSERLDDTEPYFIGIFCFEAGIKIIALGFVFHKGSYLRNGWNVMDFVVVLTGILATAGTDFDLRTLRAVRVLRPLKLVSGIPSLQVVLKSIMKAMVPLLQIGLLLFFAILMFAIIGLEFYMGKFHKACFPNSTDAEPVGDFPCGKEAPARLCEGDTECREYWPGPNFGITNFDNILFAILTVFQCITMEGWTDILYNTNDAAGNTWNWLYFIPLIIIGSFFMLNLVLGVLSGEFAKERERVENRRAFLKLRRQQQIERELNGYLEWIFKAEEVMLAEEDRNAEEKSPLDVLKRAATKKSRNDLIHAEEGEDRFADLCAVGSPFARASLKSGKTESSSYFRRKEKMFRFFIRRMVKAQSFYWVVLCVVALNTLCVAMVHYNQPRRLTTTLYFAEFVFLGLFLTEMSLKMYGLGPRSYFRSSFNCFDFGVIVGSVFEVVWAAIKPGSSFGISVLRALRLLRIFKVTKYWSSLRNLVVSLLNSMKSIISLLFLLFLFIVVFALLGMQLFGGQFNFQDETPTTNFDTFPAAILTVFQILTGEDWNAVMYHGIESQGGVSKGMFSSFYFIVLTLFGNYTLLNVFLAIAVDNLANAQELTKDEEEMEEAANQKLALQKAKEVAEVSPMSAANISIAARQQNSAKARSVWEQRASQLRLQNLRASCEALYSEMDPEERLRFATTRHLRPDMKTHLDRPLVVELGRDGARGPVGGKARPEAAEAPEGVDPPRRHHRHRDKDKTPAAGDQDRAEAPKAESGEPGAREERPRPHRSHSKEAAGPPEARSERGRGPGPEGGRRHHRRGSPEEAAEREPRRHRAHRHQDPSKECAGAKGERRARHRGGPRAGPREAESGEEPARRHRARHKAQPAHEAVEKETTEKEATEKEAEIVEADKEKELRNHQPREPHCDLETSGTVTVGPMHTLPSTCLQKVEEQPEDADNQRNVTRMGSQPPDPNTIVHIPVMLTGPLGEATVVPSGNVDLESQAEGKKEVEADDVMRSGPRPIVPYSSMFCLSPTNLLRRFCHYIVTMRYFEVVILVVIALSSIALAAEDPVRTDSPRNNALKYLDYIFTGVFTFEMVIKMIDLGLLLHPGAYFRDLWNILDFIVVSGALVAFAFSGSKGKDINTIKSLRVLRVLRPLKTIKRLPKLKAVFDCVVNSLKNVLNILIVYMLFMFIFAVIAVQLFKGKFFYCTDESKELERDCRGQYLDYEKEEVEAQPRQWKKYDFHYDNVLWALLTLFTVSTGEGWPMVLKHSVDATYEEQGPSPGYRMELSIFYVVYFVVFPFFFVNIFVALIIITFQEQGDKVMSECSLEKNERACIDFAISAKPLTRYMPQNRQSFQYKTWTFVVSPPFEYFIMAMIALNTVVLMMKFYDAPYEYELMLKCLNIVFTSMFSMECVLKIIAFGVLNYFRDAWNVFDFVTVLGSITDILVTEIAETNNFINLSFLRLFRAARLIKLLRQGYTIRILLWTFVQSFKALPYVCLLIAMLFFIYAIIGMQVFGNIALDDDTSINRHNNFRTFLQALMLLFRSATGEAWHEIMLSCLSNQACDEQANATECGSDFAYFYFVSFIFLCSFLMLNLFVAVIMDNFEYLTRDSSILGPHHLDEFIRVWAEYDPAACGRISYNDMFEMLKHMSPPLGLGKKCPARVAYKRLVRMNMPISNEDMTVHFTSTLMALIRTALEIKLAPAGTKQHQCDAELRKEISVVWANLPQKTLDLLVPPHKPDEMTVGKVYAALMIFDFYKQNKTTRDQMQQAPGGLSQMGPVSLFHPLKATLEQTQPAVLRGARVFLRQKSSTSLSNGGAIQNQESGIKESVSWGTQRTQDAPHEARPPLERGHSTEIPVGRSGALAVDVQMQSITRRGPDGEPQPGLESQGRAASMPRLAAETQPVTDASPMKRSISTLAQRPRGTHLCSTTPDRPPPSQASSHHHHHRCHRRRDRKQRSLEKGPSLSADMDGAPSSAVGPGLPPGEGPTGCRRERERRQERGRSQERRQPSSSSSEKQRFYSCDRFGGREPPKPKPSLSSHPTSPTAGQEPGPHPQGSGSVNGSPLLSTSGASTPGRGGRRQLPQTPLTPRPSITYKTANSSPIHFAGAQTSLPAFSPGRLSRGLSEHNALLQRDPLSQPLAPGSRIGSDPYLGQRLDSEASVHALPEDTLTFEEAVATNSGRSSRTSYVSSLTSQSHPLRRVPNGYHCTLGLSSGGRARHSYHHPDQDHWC
T2 sequence (P36544 whole entry): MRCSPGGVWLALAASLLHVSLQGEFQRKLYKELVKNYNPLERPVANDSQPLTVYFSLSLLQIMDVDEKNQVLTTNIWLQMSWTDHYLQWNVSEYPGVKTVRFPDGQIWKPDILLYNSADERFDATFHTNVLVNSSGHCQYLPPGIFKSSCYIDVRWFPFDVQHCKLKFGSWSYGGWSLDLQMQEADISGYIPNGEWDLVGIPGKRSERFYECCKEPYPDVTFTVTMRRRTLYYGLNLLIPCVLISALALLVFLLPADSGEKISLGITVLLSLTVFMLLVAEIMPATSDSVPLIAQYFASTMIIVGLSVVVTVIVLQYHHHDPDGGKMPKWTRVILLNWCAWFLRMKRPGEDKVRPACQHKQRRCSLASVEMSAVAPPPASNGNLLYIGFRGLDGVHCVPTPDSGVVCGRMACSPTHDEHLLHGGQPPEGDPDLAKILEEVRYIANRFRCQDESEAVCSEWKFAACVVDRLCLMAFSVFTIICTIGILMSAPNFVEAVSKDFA
Chain of Neuronal acetylcholine receptor; alpha9/alpha10 (Q9UGM1 whole entry): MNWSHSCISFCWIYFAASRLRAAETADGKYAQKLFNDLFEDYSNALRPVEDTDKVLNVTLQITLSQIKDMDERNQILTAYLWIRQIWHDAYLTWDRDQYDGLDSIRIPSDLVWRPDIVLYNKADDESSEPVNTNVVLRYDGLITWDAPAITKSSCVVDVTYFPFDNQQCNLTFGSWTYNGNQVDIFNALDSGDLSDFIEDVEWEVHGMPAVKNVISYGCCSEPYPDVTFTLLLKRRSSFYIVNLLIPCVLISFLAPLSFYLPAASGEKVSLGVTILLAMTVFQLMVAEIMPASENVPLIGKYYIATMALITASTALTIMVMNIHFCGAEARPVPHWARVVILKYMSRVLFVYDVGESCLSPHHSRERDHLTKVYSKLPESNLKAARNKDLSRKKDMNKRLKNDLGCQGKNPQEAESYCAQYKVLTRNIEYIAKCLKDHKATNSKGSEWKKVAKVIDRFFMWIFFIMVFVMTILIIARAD
Chain of Neuronal acetylcholine receptor; alpha9/alpha10 (Q9GZZ6 whole entry): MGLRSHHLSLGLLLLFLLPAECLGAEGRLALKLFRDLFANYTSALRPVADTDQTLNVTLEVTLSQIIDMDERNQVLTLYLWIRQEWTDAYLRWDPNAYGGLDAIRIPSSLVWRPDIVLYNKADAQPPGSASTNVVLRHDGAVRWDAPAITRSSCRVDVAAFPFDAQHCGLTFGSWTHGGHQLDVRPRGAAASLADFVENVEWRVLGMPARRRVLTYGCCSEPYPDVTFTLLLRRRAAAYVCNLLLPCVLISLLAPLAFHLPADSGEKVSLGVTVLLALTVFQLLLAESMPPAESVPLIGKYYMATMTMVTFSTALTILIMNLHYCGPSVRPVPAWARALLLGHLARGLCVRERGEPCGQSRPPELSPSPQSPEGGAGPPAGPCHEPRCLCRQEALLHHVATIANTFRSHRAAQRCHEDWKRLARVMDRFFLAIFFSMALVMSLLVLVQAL
Chain of Nicotinic acetylcholine receptor alpha9/alpha10 (P43144 whole entry): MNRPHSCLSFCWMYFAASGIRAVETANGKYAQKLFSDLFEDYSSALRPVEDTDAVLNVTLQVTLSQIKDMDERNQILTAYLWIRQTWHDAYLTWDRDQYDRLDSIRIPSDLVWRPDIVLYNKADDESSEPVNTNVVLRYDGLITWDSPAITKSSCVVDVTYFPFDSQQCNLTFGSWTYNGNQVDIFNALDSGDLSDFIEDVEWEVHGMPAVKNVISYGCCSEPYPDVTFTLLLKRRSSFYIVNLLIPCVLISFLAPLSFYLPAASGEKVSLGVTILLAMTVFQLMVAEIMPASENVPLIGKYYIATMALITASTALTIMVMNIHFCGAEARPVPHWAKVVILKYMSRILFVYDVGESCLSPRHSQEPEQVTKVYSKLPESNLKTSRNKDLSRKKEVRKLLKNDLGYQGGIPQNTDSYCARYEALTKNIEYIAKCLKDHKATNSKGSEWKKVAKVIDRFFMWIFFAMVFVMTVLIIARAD
Chain of Nicotinic acetylcholine receptor alpha9/alpha10 (Q9JLB5 whole entry): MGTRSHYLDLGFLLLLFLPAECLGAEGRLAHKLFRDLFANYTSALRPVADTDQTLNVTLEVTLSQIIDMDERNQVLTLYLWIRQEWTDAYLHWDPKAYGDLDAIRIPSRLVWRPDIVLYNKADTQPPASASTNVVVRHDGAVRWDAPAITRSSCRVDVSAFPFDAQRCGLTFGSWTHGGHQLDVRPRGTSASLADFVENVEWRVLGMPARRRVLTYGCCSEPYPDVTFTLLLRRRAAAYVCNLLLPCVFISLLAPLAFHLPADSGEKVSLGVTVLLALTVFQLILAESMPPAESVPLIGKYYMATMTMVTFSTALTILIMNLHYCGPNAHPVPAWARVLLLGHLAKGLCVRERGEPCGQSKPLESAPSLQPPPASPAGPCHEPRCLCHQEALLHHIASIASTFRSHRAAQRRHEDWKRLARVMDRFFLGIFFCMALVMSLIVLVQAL

For `CC[C@H](C)[C@H](NC(=O)[C@H](CCCNC(=N)N)NC(=O)[C@H](CCCNC(=N)N)NC(=O)[C@H](Cc1ccc(O)cc1)NC(=O)[C@H](CCCNC(=N)N)NC(=O)[C@H](CCCNC(=N)N)NC(=O)[C@H](CCCNC(=N)N)NC(=O)[C@H](CCCNC(=N)N)NC(=O)[C@H](CC(=O)O)NC(=O)[C@H](Cc1ccc(O)cc1)NC(=O)[C@@H]1CCCN1C(=O)[C@H](CO)NC(=O)[C@H](CCCNC(=N)N)NC(=O)[C@H](Cc1ccc(O)cc1)NC(=O)[C@H](CCCNC(=N)N)NC(=O)CN)C(=O)N[C@H](C(=O)N[C@@H](CC(=O)O)C(N)=O)[C@@H](C)O`, the IC50 [1] was 5 nM, the IC50 [2] was 3.6 nM and the IC50 [3] was 18.3 nM. The inhibition [4] was “inactive”, the inhibition [5] was 25% and the inhibition [6] was 80%. The IC50 [7] was 43.8 nM, the inhibition [8] was “inactive” and the inhibition [9] was “inactive”. The inhibition [10] was 20%, the inhibition [11] was “Active” and the inhibition [12] was “Active”. For the same compound, the inhibition [13] was “inactive”, the inhibition [14] was “inactive” and the inhibition [15] was 53.6%. For the same compound, the Activity [16] was “Active”, the Activity [17] was “Active” and the Activity [18] was “Active”. The Activity [19] was “Non-Toxic” and the inhibition [20] was “inactive”.

Source: ChEMBL document CHEMBL5537181 (J Med Chem, 2024)
